Laboratory results taken from PubChem BioAssay AID330 (DTP/NCI, 2004).
Several values for one entry are separate records, joined by “and”; a condition that tells them apart may be missing. Equal entries are not always repeated. Inconclusive results and toxic doses are left out. Rule for the calls: active = survival T/C of 150% or more; inactive = T/C below 125% in these data. Square brackets hold non-standard residues; d marks the D form. Peptide text beside a SMILES is read from it. ξ: configuration not given here. ξT = CC(O)C(N)C(=O)O

System: P388 leukemia ip, CD2F1 mice, survival T/C
Test: NCI In Vivo Anticancer Drug Screen. Data for tumor model P388 Leukemia (intraperitoneal) in CD2F1 (CDF1) mice
Conditions: endpoint: median survival time, higher = longer survival
How it was run: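 Mice carrying the transplanted tumor received test compound or vehicle. Survival was recorded in each group, and the value is the treated-group measurement divided by that of the vehicle-treated control group.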

[1] = dose: 50.0 mg/kg/injection, schedule: Q01DX009 (ip), vehicle: saline with Tween-80
[2] = dose: 100.0 mg/kg/injection, schedule: Q01DX009 (ip), vehicle: saline with Tween-80
[3] = dose: 200.0 mg/kg/injection, schedule: Q01DX009 (ip), vehicle: saline with Tween-80
[4] = dose: 60.0 mg/kg/injection, schedule: Q01DX005 (ip), vehicle: Klucel (hydroxypropylcellulose) (HPC)
[5] = dose: 50.0 mg/kg/injection, schedule: Q01DX009 (ip), vehicle: Klucel (hydroxypropylcellulose) (HPC)
[6] = dose: 100.0 mg/kg/injection, schedule: Q01DX009 (ip), vehicle: Klucel (hydroxypropylcellulose) (HPC)
[7] = dose: 200.0 mg/kg/injection, schedule: Q01DX009 (ip), vehicle: Klucel (hydroxypropylcellulose) (HPC)
[8] = dose: 50.0 mg/kg/injection, schedule: Q01DX005 (ip), vehicle: Klucel (hydroxypropylcellulose) (HPC)
[9] = dose: 100.0 mg/kg/injection, schedule: Q01DX005 (ip), vehicle: Klucel (hydroxypropylcellulose) (HPC)
[10] = dose: 200.0 mg/kg/injection, schedule: Q01DX005 (ip), vehicle: Klucel (hydroxypropylcellulose) (HPC)
[11] = dose: 50.0 mg/kg/injection, schedule: Q01DX009 (ip), vehicle: saline

Measured: T/C

CCCCCCCCCCCCCCCCN1c2ccccc2C(C)(C)C12C=Cc1cccc([N+](=O)[O-])c1O2 (stereo not given)
inactive: [1] 92 % of control | [2] 93 % of control | [3] 88 % of control

c1cc2c3c(cccc3c1)NN=N2
inactive: dose: 60.0 mg/kg/injection, schedule: Q01DX005 (ip), vehicle: Klucel + Tween-80 106 % of control | dose: 120.0 mg/kg/injection, schedule: Q01DX005 (ip), vehicle: Klucel + Tween-80 99 % of control | dose: 240.0 mg/kg/injection, schedule: Q01DX005 (ip), vehicle: Klucel + Tween-80 96 % of control

CC1=C(C)C(=O)C(CCl)=[C-]C1=O.[Co].[c-]1[c-][c-][cH-][c-]1
inactive: dose: 50.0 mg/kg/injection, schedule: Q01DX005 (ip), vehicle: saline with Tween-80 123 % of control

CC(/C=N\Nc1ccc(Cl)cc1)=N/NC(N)=S
inactive: dose: 100.0 mg/kg/injection, schedule: Q04DX002 (ip), vehicle: saline 99 % of control | dose: 200.0 mg/kg/injection, schedule: Q04DX002 (ip), vehicle: saline 98 % of control

c1ccc(SCCSCCSc2ccccc2)cc1
inactive: [1] 105 % of control | [2] 101 % of control | [3] 106 % of control

CC(O)C(N)C(=O)NCC(=O)NCC(=O)O (stereo not drawn) (H-[ξT]-Gly-Gly-OH)
inactive: dose: 50.0 mg/kg/injection, schedule: Q01DX005 (ip), vehicle: saline 101 % of control | dose: 100.0 mg/kg/injection, schedule: Q01DX005 (ip), vehicle: saline 101 % of control | dose: 200.0 mg/kg/injection, schedule: Q01DX005 (ip), vehicle: saline 104 % of control

Cc1nc(N)nc2ccccc12
inactive: dose: 15.0 mg/kg/injection, schedule: Q01DX005 (ip), vehicle: Klucel (hydroxypropylcellulose) (HPC) 100 % of control | dose: 30.0 mg/kg/injection, schedule: Q01DX005 (ip), vehicle: Klucel (hydroxypropylcellulose) (HPC) 100 % of control | [4] 99 % of control

CCC1CN2CCc3cc(OC)c(OC)cc3C2C(C2(O)C(=O)Nc3ccccc32)C1=O (stereo not given)
inactive: [5] 99 % of control | [6] 100 % of control | [7] 100 % of control

O=C(O)C1(Br)CC2(C1)CC(Br)(C(=O)O)C2 (stereo not given)
inactive: dose: 100.0 mg/kg/injection, schedule: Q04DX002 (ip), vehicle: other 94 % of control | dose: 200.0 mg/kg/injection, schedule: Q04DX002 (ip), vehicle: other 91 % of control | dose: 400.0 mg/kg/injection, schedule: Q04DX002 (ip), vehicle: other 103 % of control

c1ccc(CSCCOCCOCCSCc2ccccn2)nc1
inactive: [8] 101 % of control | [9] 108 % of control | [10] 104 % of control

O=C(OC[P+](c1ccccc1)(c1ccccc1)c1ccccc1)c1ccccc1
inactive: [11] 89 % of control

CC(=O)[C@@]1(O)CC[C@H]2[C@@H]3C[C@H](C)C4=CC(=O)CC[C@]4(C)[C@H]3[C@@H](O)C[C@@]21C
inactive: dose: 66.0 mg/kg/injection, schedule: Q01DX009 (ip), vehicle: saline with Tween-80 100 % of control | [2] 100 % of control | dose: 150.0 mg/kg/injection, schedule: Q01DX009 (ip), vehicle: saline with Tween-80 104 % of control

O=C(O)C1Cc2c([nH]c3ccccc23)CN1 (stereo not given)
inactive: dose: 12.5 mg/kg/injection, schedule: Q01DX009 (ip), vehicle: suspension in saline 100 % of control | dose: 25.0 mg/kg/injection, schedule: Q01DX009 (ip), vehicle: suspension in saline 109 % of control | dose: 50.0 mg/kg/injection, schedule: Q01DX009 (ip), vehicle: suspension in saline 105 % of control | dose: 100.0 mg/kg/injection, schedule: Q01DX009 (ip), vehicle: suspension in saline 106 % of control

COc1cc(/C=N/N2CC(=O)N(c3ccccc3)CC2=O)cc(OC)c1
inactive: dose: 6.25 mg/kg/injection, schedule: Q01DX005 (ip), vehicle: saline with Tween-80 97 % of control | dose: 12.5 mg/kg/injection, schedule: Q01DX005 (ip), vehicle: saline with Tween-80 100 % of control | dose: 25.0 mg/kg/injection, schedule: Q01DX005 (ip), vehicle: saline with Tween-80 100 % of control

CNCCSSCCN
inactive: dose: 25.0 mg/kg/injection, schedule: Q04DX003 (ip), vehicle: saline 100 % of control | dose: 50.0 mg/kg/injection, schedule: Q04DX003 (ip), vehicle: saline 90 % of control | dose: 100.0 mg/kg/injection, schedule: Q04DX003 (ip), vehicle: saline 86 % of control

CCCC(=O)C(CC)C(O)(C(F)(F)F)C(F)(F)F (stereo not given)
inactive: [11] 104 % of control | dose: 100.0 mg/kg/injection, schedule: Q01DX009 (ip), vehicle: saline 104 % of control | dose: 200.0 mg/kg/injection, schedule: Q01DX009 (ip), vehicle: saline 109 % of control

CC1=C(O)C(=O)C(c2c(C)cc(C)c(Br)c2C)=C(O)C1=O
inactive: dose: 6.25 mg/kg/injection, schedule: Q01DX005 (ip), vehicle: Klucel (hydroxypropylcellulose) (HPC) 100 % of control and 104 % of control | dose: 12.5 mg/kg/injection, schedule: Q01DX005 (ip), vehicle: Klucel (hydroxypropylcellulose) (HPC) 104 % of control and 117 % of control and 118 % of control | dose: 25.0 mg/kg/injection, schedule: Q01DX005 (ip), vehicle: Klucel (hydroxypropylcellulose) (HPC) 104 % of control and 117 % of control | [8] 116 % of control and 94 % of control

Oc1c(CN2CCCC2)cc(Nc2cc(/C=C/c3ccc(Cl)cc3)nc(/C=C\c3ccc(Cl)cc3)n2)cc1CN1CCCC1
inactive: dose: 0.62 mg/kg/injection, schedule: Q01DX009 (ip), vehicle: saline with Tween-80 103 % of control | dose: 1.25 mg/kg/injection, schedule: Q01DX009 (ip), vehicle: saline with Tween-80 112 % of control | dose: 2.5 mg/kg/injection, schedule: Q01DX009 (ip), vehicle: saline with Tween-80 105 % of control | dose: 5.0 mg/kg/injection, schedule: Q01DX009 (ip), vehicle: saline with Tween-80 106 % of control | dose: 10.0 mg/kg/injection, schedule: Q01DX009 (ip), vehicle: saline with Tween-80 92 % of control

CCCCC(/C=N/NC(N)=S)C(=O)OCC (stereo not given)
inactive: [4] 102 % of control | dose: 120.0 mg/kg/injection, schedule: Q01DX005 (ip), vehicle: Klucel (hydroxypropylcellulose) (HPC) 100 % of control | dose: 240.0 mg/kg/injection, schedule: Q01DX005 (ip), vehicle: Klucel (hydroxypropylcellulose) (HPC) 100 % of control

CN(C)CC1CC/C=C\C(c2ccccc2)N(C)C1c1ccccc1 (stereo not given)
inactive: dose: 100.0 mg/kg/injection, schedule: Q04DX003 (ip), vehicle: suspension in saline 105 % of control | dose: 200.0 mg/kg/injection, schedule: Q04DX003 (ip), vehicle: suspension in saline 116 % of control | dose: 400.0 mg/kg/injection, schedule: Q04DX003 (ip), vehicle: suspension in saline 99 % of control

CCOc1ccccc1C(=O)Nc1ccc(Br)cc1
inactive: [5] 100 % of control | [6] 99 % of control | [2] 112 % of control | dose: 100.0 mg/kg/injection, schedule: Q04DX003 (ip), vehicle: saline with Tween-80 100 % of control | [7] 106 % of control | [3] 104 % of control | dose: 200.0 mg/kg/injection, schedule: Q04DX003 (ip), vehicle: saline with Tween-80 100 % of control | dose: 400.0 mg/kg/injection, schedule: Q01DX009 (ip), vehicle: Klucel (hydroxypropylcellulose) (HPC) 97 % of control | dose: 400.0 mg/kg/injection, schedule: Q01DX009 (ip), vehicle: saline with Tween-80 91 % of control | dose: 400.0 mg/kg/injection, schedule: Q04DX003 (ip), vehicle: saline with Tween-80 95 % of control

CCCCCOCC(=O)O
inactive: dose: 25.0 mg/kg/injection, schedule: Q01DX009 (ip), vehicle: saline with Tween-80 104 % of control | [1] 94 % of control | [2] 96 % of control

Cc1n[nH]c(=O)c(C#N)c1C
inactive: [8] 95 % of control | [9] 100 % of control | [10] 95 % of control
